In patent publication US5891877A, “Pharmaceutical compounds” (Xenova Limited, priority 1996, dated 1999):
Counter-ions that a name gives are not always drawn. One block for each compound: values may come before it.

Tests used:
[1] = tested on: cytotoxicity of vincristine; settings: J. Antibiotics vol XLIII No. 8, 1018-1020; cited from earlier work
PAI-1 = PAI-1 (Homo sapiens, UniProt P05121); experiment: PAI-1 inhibition in the S2251 chromogenic substrate assay (PAI functional assay); assay type: biochemical; settings: for INHIBITION OF PAI-1 (degree of inhibition): unit assumed; for inhibition at 20 µM / inhibition at 50 µM / inhibition at 100 µM: read-out: INHIBITION OF PAI-1 (degree of inhibition); for IC50: PAI-1, S2251 assay
Sequence of PAI-1 (P05121 24-402): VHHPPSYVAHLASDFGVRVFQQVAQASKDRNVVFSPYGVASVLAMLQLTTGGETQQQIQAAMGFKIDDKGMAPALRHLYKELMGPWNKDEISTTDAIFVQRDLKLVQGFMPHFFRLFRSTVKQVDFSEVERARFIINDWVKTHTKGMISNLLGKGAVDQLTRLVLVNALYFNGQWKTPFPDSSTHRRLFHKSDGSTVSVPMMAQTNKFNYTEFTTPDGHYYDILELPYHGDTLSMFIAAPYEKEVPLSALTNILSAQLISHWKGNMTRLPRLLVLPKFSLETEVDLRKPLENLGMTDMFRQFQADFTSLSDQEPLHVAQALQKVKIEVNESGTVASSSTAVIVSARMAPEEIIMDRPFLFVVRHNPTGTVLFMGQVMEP
Summary of the method: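 Read-out is p-nitroaniline absorbance at 405 nm from plasmin cleavage of S2251. PAI-1 is first incubated with test compound before entering the tPA assay, where uninhibited tPA generates plasmin from plasminogen.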

INHIBITION OF PAI-1 (degree of inhibition) (PAI-1; 25 μm, Table 1, first part): 28%
INHIBITION OF PAI-1 (degree of inhibition) (PAI-1; 50 μm, Table 1, first part): 52%
INHIBITION OF PAI-1 (degree of inhibition) (PAI-1; 100 μm, Table 1, first part): 64%
IC50 (PAI-1; Table 2): 25 to 50 µM
Compound: COc1ccc(/C=c2\[nH]c(=O)/c(=C/c3cccs3)[nH]c2=O)cc1 [Compound 1474, (3Z,6Z)-3-(4-Methoxybenzylidene)-6-(2-thienylmethylene)-2,5-piperazinedione]

INHIBITION OF PAI-1 (degree of inhibition) (PAI-1; 6.25 μm, Table 1, first part): 16%
INHIBITION OF PAI-1 (degree of inhibition) (PAI-1; 12.5 μm, Table 1, first part): 48%
INHIBITION OF PAI-1 (degree of inhibition) (PAI-1; 25 μm, Table 1, first part): 59%
INHIBITION OF PAI-1 (degree of inhibition) (PAI-1; 50 μm, Table 1, first part): 45%
INHIBITION OF PAI-1 (degree of inhibition) (PAI-1; 100 μm, Table 1, first part): 27%
Compound: O=c1[nH]/c(=C\c2ccc(Cn3ccnc3)cc2)c(=O)[nH]/c1=C\c1ccccc1 [Compound 1929, (3Z,6Z)-3-Benzylidene-6-(4-(1-imidazolylmethyl)benzylidene)-2,5-piperazinedione]

INHIBITION OF PAI-1 (degree of inhibition) (PAI-1; 6.25 μm, Table 1, first part): 1%
INHIBITION OF PAI-1 (degree of inhibition) (PAI-1; 12.5 μm, Table 1, first part): 5%
INHIBITION OF PAI-1 (degree of inhibition) (PAI-1; 25 μm, Table 1, first part): 39%
INHIBITION OF PAI-1 (degree of inhibition) (PAI-1; 50 μm, Table 1, first part): 64%
INHIBITION OF PAI-1 (degree of inhibition) (PAI-1; 100 μm, Table 1, first part): 87%
Compound: COc1ccc(/C=c2\[nH]c(=O)/c(=C/c3c[nH]c4ccccc34)[nH]c2=O)cc1 [Compound 1545, (3Z,6Z)-3-(3-Indolylmethylene)-6-(4-methoxybenzylidene)-2,5-piperazinedione]

IC50 (PAI-1; Table 1, second part): 7 µM
Compound: CN(C)CCN(C)c1ccc(/C=c2\[nH]c(=O)/c(=C/c3ccccc3)[nH]c2=O)s1 [Compound 5299, (3Z,6Z)-6-Benzylidene-3-(5-(2-dimethylaminoethyl)methylamino-2-thienylmethylene)-2,5-piperazinedione]

inhibition at 20 µM (PAI-1; 20 μM, Table 1, second part): 63%
inhibition at 50 µM (PAI-1; Table 1, second part): 62%
inhibition at 100 µM (PAI-1; 100 μM, Table 1, second part): 65%
Compound: CN(C)CC(O)COc1ccc(/C=c2\[nH]c(=O)/c(=C/c3ccccc3)[nH]c2=O)cc1 (stereo not shown) [Compound 5032, (3Z,6Z)-6-Benzylidene-3-(4-(3-dimethylamino-2-hydroxypropoxy)benzylidene)-2,5-piperazinedione]

inhibition at 20 µM (PAI-1; 20 μM, Table 1, second part): 17%
Compound: CN(C)CCOc1csc(/C=c2\[nH]c(=O)/c(=C/c3ccccc3)[nH]c2=O)c1 [Compound 5327, (3Z,6Z)-6-Benzylidene-3-(4-(2-dimethylaminoethoxy)-2-thienylmethylene)-2,5-piperazinedione]

inhibition at 20 µM (PAI-1; 20 μM, Table 1, second part): 11%
inhibition at 50 µM (PAI-1; Table 1, second part): 67%
inhibition at 100 µM (PAI-1; 100 μM, Table 1, second part): 60%
Compound: CN(C)CCSCc1ccc(/C=c2\[nH]c(=O)/c(=C/c3ccsc3)[nH]c2=O)cc1 [Compound 5078, (3Z,6Z)-6-(4-(2-Dimethylaminoethylthiomethyl)benzylidene)-3-(3-thenylidene)-2,5-piperazinedione]

Further lines, the compound ahead of its results:

Compound: O=c1[nH]/c(=C\c2ccccc2)c(=O)[nH]/c1=C\c1ccccc1 [piperafizine B]
utility as potentiators of the cytotoxicity of vincristine [1]: potentiators of the cytotoxicity of vincristine

Compound: Cn1c(=O)/c(=C/c2ccccc2)[nH]c(=O)/c1=C/c1ccccc1 [piperafizine A]
utility as potentiators of the cytotoxicity of vincristine [1]: potentiators of the cytotoxicity of vincristine

Compound: COc1cc(C=C/C=c2\[nH]c(=O)/c(=C/c3ccccc3)[nH]c2=O)ccc1OCCN(C)C [Compound 1950, (3Z,6Z)-3-Benzylidene-6-(4-(2-dimethylaminoethoxy)-3-methoxycinnamylidene)-2,5-piperazinedione]
INHIBITION OF PAI-1 (degree of inhibition) (PAI-1; 6.25 μm, Table 1, first part): 1%
INHIBITION OF PAI-1 (degree of inhibition) (PAI-1; 12.5 μm, Table 1, first part): 2%
INHIBITION OF PAI-1 (degree of inhibition) (PAI-1; 25 μm, Table 1, first part): 2%
INHIBITION OF PAI-1 (degree of inhibition) (PAI-1; 50 μm, Table 1, first part): 3%
INHIBITION OF PAI-1 (degree of inhibition) (PAI-1; 100 μm, Table 1, first part): 19%

Compound: CN(C)CCOCCOc1ccc(/C=c2\[nH]c(=O)/c(=C/c3ccccc3)[nH]c2=O)s1 [Compound 5388, (3Z,6Z)-6-Benzylidene-3-(5-(2-(2-dimethylaminoethoxy)ethoxy)-2-thienylmethylene)-2,5-piperazinedione]
inhibition at 20 µM (PAI-1; 20 μM, Table 1, second part): 58%
IC50 (PAI-1; Table 1, second part): 9 µM

Compound: CN(C)CCCOc1ccc(/C=c2\[nH]c(=O)/c(=C/c3ccc(C(=O)NCCCCN4CCc5ccccc5C4)cc3)[nH]c2=O)cc1 [Compound 5397.HCl]
INHIBITION OF PAI-1 (degree of inhibition) (PAI-1; 20 μM, Table 1, second part): 21%

Compound: CN(C)CCCOc1ccc(/C=c2\[nH]c(=O)/c(=C/c3cccc4ccccc34)[nH]c2=O)cc1 [Compound 5205]
INHIBITION OF PAI-1 (degree of inhibition) (PAI-1; 20 μM, Table 1, second part): 33%
INHIBITION OF PAI-1 (degree of inhibition) (PAI-1; 100 μM, Table 1, second part): 56%
IC50 (PAI-1; Table 1, second part): 100 µM

Compound: CN(C)CCCOc1ccc(/C=c2\[nH]c(=O)/c(=C/c3ccc(-n4ccnc4)cc3)[nH]c2=O)cc1 [Compound 1976]
INHIBITION OF PAI-1 (degree of inhibition) (PAI-1; 6.25 μm, Table 1, first part): 0%
INHIBITION OF PAI-1 (degree of inhibition) (PAI-1; 12.5 μm, Table 1, first part): 0%
INHIBITION OF PAI-1 (degree of inhibition) (PAI-1; 25 μm, Table 1, first part): 0%
INHIBITION OF PAI-1 (degree of inhibition) (PAI-1; 50 μm, Table 1, first part): 0%
INHIBITION OF PAI-1 (degree of inhibition) (PAI-1; 100 μm, Table 1, first part): 3%

Compound: CC(C)(C)OC(=O)n1cc(/C=c2\[nH]c(=O)/c(=C/c3ccccc3)[nH]c2=O)c2ccccc21 [Compound 1471, (3Z,6Z)-3-Benzylidene-6-(3-(1-tert-butoxycarbonyl)indolyl)methylene-2,5-piperazinedione]
INHIBITION OF PAI-1 (degree of inhibition) (PAI-1; 6.25 μm, Table 1, first part): 0%
INHIBITION OF PAI-1 (degree of inhibition) (PAI-1; 12.5 μm, Table 1, first part): 6%
INHIBITION OF PAI-1 (degree of inhibition) (PAI-1; 25 μm, Table 1, first part): 20%
INHIBITION OF PAI-1 (degree of inhibition) (PAI-1; 50 μm, Table 1, first part): 60%
INHIBITION OF PAI-1 (degree of inhibition) (PAI-1; 100 μm, Table 1, first part): 80%
IC50 (PAI-1; Table 2): 25 to 50 µM

Compound: O=c1[nH]/c(=C\c2cc(Cl)sc2Cl)c(=O)[nH]/c1=C\c1ccccc1 [Compound 5075, (3Z,6Z)-3-(2,5-Dichloro-3-thenylidene)-6-benzylidene-2,5-piperazinedione]
inhibition at 20 µM (PAI-1; 20 μM, Table 1, second part): 52%
inhibition at 50 µM (PAI-1; Table 1, second part): 88%
inhibition at 100 µM (PAI-1; 100 μM, Table 1, second part): 88%

Compound: CC(=O)Nc1ccc(/C=c2\[nH]c(=O)/c(=C/c3ccc(OCCCN(C)C)cc3)[nH]c2=O)cc1 [Compound 5048]
inhibition at 20 µM (PAI-1; 20 μM, Table 1, second part): 11%
inhibition at 50 µM (PAI-1; Table 1, second part): 19%
inhibition at 100 µM (PAI-1; 100 μM, Table 1, second part): 55%
